Results on ten molecules are retold here after patent US4939132A, “Novel 5-alkylsulfonylsalicylanilides and microbiocidal compositions for controlling the growth of microorganisms” (The Research Foundation of State University of New York, priority 1985, dated 1990).

In brackets after ≈: the same amount, converted by molar mass. Where two headings read alike, the source gives them in different places.

For one data set, the system named is S. pyogenes. The data set can be described thus: Tube dilution assay (Macro-Broth Dilution Method), S. pyogenes. In kind it is cell-based. The note with it: Streptococcus pyogenes, read-out: Minimal Inhibitory Concentration. How it is done: (§1) Various compositions prepared in accord with the above examples were tested in vitro for minimal concentration to inhibit or kill organisms in comparison to prior art compounds. The test used is set forth in detail in Manual of Clinical Microbiology, third edition, pages 456-475 (Macro-BrothDilution Method), 1980, American society for microbiology.
(§2) In the test procedure serial dilutions of the antimicrobic compound are innoculated with the organism to be inhibited and incubated. The minimum inhibitory concentration (MIC) is the lowest concentration of antimicrobic compound that is achieved without visible growth of the organism. The test method comprises preparing a stock solution of antimicrobic compound and diluting it in a Meuller-Hinton broth. A series of sterile 13 by 100 mm, cotton-plugged, test tubes are set out wherein 2 ml of the broth diluted antimicrobic solution (working solution) is added to the first tube and to each remaining tube is added 1.0 ml of non-antimicrobic containing broth. 1.0 ml of working solution from the first tube is transferred to the second tube and thoroughly mixed therewith. Thereafter, 1.0 ml of the mixed solution is transferred to the third tube and mixed with the process continuing through the dilution steps desired. The tubes are then incubated at 35° C. for 16 to 20 hours. […] Various antimicrobic compounds designated (a)-(i) were tested for minimum inhibitory concentration in accord with the above procedure. Compounds (a)-(e) correspond to compounds (a)-(e) of example 9. Compounds (f)-(i) are as follow s: (f) 5-n -octylsulfonyl-4'-nitrosalicylanilide; (g) 5-n-decylsulfony-4'-bromosalicylanilide; (h) 5-n-hexylsulfonyl-4'-bromosalicylanilide; and, (i) 5-n-dodecylsulfonyl-4'-trifluoromethyl salicylanilide.

Data set [1] has as its system S. mutans. Nature of the data set: Tube dilution assay (Macro-Broth Dilution Method), S. mutans. In kind it is cell-based. The following applies: Streptococcus mutans, read-out: Minimal Inhibitory Concentration. On the procedure:
as §1, §2
Background: In broth dilution the organism is exposed to a series of concentrations in liquid medium.

Data set [2] concerns S. mutans. Nature of the data set: In vitro plaque growth inhibition (bovine enamel slabs), S. mutans. The note with it: for Total Growth ID50 (50% growth inhibition dosage): 2 min contact, about 24 h incubation, anaerobic. In kind it is cell-based, Streptococcus mutans. How it is done: (§3) Various compositions prepared in accord with the above examples were tested in vitro for plaque inhibition in comparison with prior art compounds. The test used is set forth in detail in Comparison of Antiplaque Agents Using an In Vitro Assay Reflecting Oral Conditions by R. T. Evans et al, Journal of Dental Research, June 1977.
(§4) In summary incisor teeth from bovine mandibles, obtained immediately after slaughter, are cut into 4×8 mm enamel slabs and sterilized in a 0.15M NaCl solution buffered at a pH of 7.5 with 0.02M sodium phosphate (PBS soln). Before use the slabs are coated with sterile saliva and then rinsed twice in sterile PBS. The slabs are then placed in small plastic petri dishes containing various concentrations of the compositions to be tested. The test solution used in accordance is a solution of the test compound in a mixture of 20% by volume of ethanol, 40% by volume of propylene glycol and 40% by volume of a pH 8 aqueous buffer solution containing mono and di sodium phosphates. The slabs are left in the solution of the test compound for two minutes and then rinsed in sterile PBS solution. After rinsing, each slab is placed in a 10×75 mm cotton stoppered glass culture tube containing 1 ml of sucrose-broth culture medium which is then innoculated with a 24 hour culture of the desired microorganism standardized to an optical density (OD)540 of 0.75 for A. viscosus and S. mutans. […] of the inoculation medium is used. A. viscosus is incubated under aerobic conditions and the S. mutans is incubated under anaerobic conditions (5% CO2 and 95% H2). After incubation for about 24 hours the nonadherent organisms are removed and the tube is rinsed twice with 0.5 ml of PBS and the washings combined with the nonadherent organisms.
(§5) The tooth slabs are then transferred to 1 ml of 0.1 N NaOH and 1 ml of 0.1N NaOH is also added to the glass culture tubes. The slabs and tubes are then sonically agitated, if necessary to suspend the adherent organisms. The optical density of each of the three fractions is then measured on a spectophotometer. The tests are repeated with varying concentrations of the compositions being tested until growth inhibition curves can be developed. The 50% growth inhibition dosages (ID50) are then determined with a reliability of +or -80% or better. The compounds tested are samples (a)-(e) as follows: (a) tribromosalan; (b) 5-n-decanoyl-4'-nitrosalicylanilide; (c) 5-n-decylsulfonyl-4'-nitro-salicylanilide; (d) 5-n-decylsulfonyl-4'-trifluoromethyl-salicylanilide; and, (e) 5-n-decylsulfonyl-3'-trifluoromethyl-salicylanilide.

The next data set concerns S. aureus. Nature of the data set: Tube dilution assay (Macro-Broth Dilution Method), S. aureus. In kind it is cell-based. The following applies: Staphylococcus aureus, Mueller-Hinton broth, 35° C., 16 to 20 hours, read-out: Minimal Inhibitory Concentration. On the procedure: as §1, §2
The next data set concerns S. epidermidis. Nature of the data set: Tube dilution assay (Macro-Broth Dilution Method), S. epidermidis. In kind it is cell-based. The following applies: Staphylococcus epidermidis, read-out: Minimal Inhibitory Concentration. On the procedure:
as §1, §2

Data set [3] concerns A. viscosus. The data set can be described thus: In vitro plaque growth inhibition (bovine enamel slabs), A. viscosus. The note with it: for Total Growth ID50 (50% growth inhibition dosage): 2 min contact, about 24 h incubation, aerobic. In kind it is cell-based, Actinomyces viscosus. How it is done:
as §3, §4, §5

The subject of data set [4] is A. viscosus. Nature of the data set: Tube dilution assay (Macro-Broth Dilution Method), A. viscosus. In kind it is cell-based. The note with it: Actinomyces viscosus, read-out: Minimal Inhibitory Concentration. On the procedure:
as §1, §2

The next data set deals with man. The note with it: in man; cited from earlier work.
In the next data set the test system is white rats. The data set can be described thus: Acute oral toxicity, single dose. In kind it is in vivo. The note with it: 2,500 mg/kg dose group, eighth day; attributed to a punctured thoracic cavity during administration. On the procedure:
(§6) Twelve female white rats averaging 250-300 grams in weight were fasted overnight and divided into three groups of four animals each. In one group each animal received, by gavage tube, 4 ml of an aqueous solution of 1% methylcellulose, the drug delivery vehicle. This group was the control group. The remaining two groups received doses of 750 and 2500 mg/kg respectively of 5-n-decylsulfonyl-4'-trifluoromethyl-salicylanilide in 4-ml aqueous 1% methyl cellulose suspension.
(§7) Within the first week following this single dose only one animal died.
(§8) An autopsy was performed and the cause of death was attributed to a punctured thoracic cavity during administration of the drug.

A short description of data set [5]: Acute oral toxicity, single dose. In kind it is in vivo. The following applies: rat, in vivo; single dose oral route, Sprague-Dawley white rats. On the procedure: as §6, §7, §8
Setting [6] is: S. pyogenes, Mueller-Hinton broth, 35° C., 16 to 20 hours.
Setting [7] is: S. mutans, Mueller-Hinton broth, 35° C., 16 to 20 hours.
Setting [8] is: S. epidermidis, Mueller-Hinton broth, 35° C., 16 to 20 hours.
The mark [9] stands for this setting: A. viscosus, Mueller-Hinton broth, 35° C., 16 to 20 hours.

With `CCCCCCCCCCS(=O)(=O)c1ccc(O)c(C(=O)Nc2cccc(C(F)(F)F)c2)c1` [(e), 5-n-decylsulfonyl-3'-trifluoromethyl-salicylanilide], the MIC was 0.5 µg/mL (≈ 1.03 µM) in the data set with S. pyogenes (setting [6]); 5 µg/mL (≈ 10.3 µM) in the data set with S. mutans [1] (setting [7]); 20 µg/mL (≈ 41.2 µM) in the data set with S. aureus; 0.5 µg/mL (≈ 1.03 µM) in the data set with S. epidermidis (setting [8]); 0.5 µg/mL (≈ 1.03 µM) in the data set on A. viscosus [4] (setting [9]). Moreover, the “Total Growth ID50 (50% growth inhibition dosage)” value in the data set with S. mutans [2] is reported as 2.2 × 10^-3; with A. viscosus [3] it was 6.8 × 10^-4. The “Maximum % Inhibition” value in the data set on S. mutans [2] (at 0.1%) is listed as 47%; in the data set on A. viscosus [3] (at 0.1%), 83%.

Regarding `CCCCCCCCCC(=O)c1ccc(O)c(C(=O)Nc2ccc([N+](=O)[O-])cc2)c1` [(b), 5-n-decanoyl-4'-nitrosalicylanilide, reference compound], the MIC in the data set with S. pyogenes (setting [6]) stood at 0.1 µg/mL (≈ 0.242 µM); with S. mutans [1] (setting [7]), 5 µg/mL (≈ 12.1 µM); in the data set with S. aureus, 0.1 µg/mL (≈ 0.242 µM); in the data set on S. epidermidis (setting [8]) it was 0.1 µg/mL (≈ 0.242 µM); in the data set on A. viscosus [4] (setting [9]) it was 0.05 µg/mL (≈ 0.121 µM). Further, the “Total Growth ID50 (50% growth inhibition dosage)” value in the data set on S. mutans [2] was 2.3 × 10^-2; with A. viscosus [3], 1.1 × 10^-4. In addition, the “Maximum % Inhibition” value was 59% with S. mutans [2] (at 0.2%) and 90% with A. viscosus [3] (at 0.2%).

With tetrachlorosalicylanilide, the allergic reactions result in the data set on man is recorded as “has been shown to produce allergic reactions in man”.

As for `CCCCCCCCCCS(=O)(=O)c1ccc(O)c(C(=O)Nc2ccc([N+](=O)[O-])cc2)c1` [(c), 5-n-decylsulfonyl-4'-nitro-salicylanilide], the MIC in the data set with S. pyogenes (setting [6]), with S. mutans [1] (setting [7]), in the data set with S. aureus, in the data set with S. epidermidis (setting [8]) and in the data set with A. viscosus [4] (setting [9]) was 0.5 µg/mL (≈ 1.08 µM) throughout. Further, the “Total Growth ID50 (50% growth inhibition dosage)” value is 1.9 × 10^-4 with S. mutans [2] and 2.3 × 10^-4 with A. viscosus [3]. For the same molecule, the “Maximum % Inhibition” value in the data set with S. mutans [2] (at 0.2%) turned out to be 80%; with A. viscosus [3] (at 0.2%) it was 93%.

Take `CCCCCCCCCCCCS(=O)(=O)c1ccc(O)c(C(=O)Nc2ccc(C(F)(F)F)cc2)c1` [(i), 5-n-dodecylsulfonyl-4'-trifluoromethyl salicylanilide]: the MIC in the data set on S. pyogenes (setting [6]) turned out to be 0.5 µg/mL (≈ 0.973 µM); in the data set with S. aureus, 0.5 µg/mL (≈ 0.973 µM); with S. epidermidis (setting [8]), 0.1 µg/mL (≈ 0.195 µM); in the data set on A. viscosus [4] (setting [9]) it was 0.05 µg/mL (≈ 0.0973 µM).

As to `O=C(Nc1ccc(Br)cc1)c1cc(Br)cc(Br)c1O` [(a), tribromosalan, reference compound], the MIC in the data set with S. pyogenes was 0.5 µg/mL (≈ 1.11 µM); with S. mutans [1] it was 1 µg/mL (≈ 2.22 µM); in the data set on S. aureus, 1 µg/mL (≈ 2.22 µM); with S. epidermidis, 0.5 µg/mL (≈ 1.11 µM); in the data set on A. viscosus [4], 0.5 µg/mL (≈ 1.11 µM). Also, the “Total Growth ID50 (50% growth inhibition dosage)” value in the data set on S. mutans [2] is 1.2 × 10^-7; with A. viscosus [3] it was 8.8 × 10^-4. In addition, the “Maximum % Inhibition” value with S. mutans [2] (at 0.2%) is 46%; in the data set on A. viscosus [3] (at 0.2%), 53%.

As for `CCCCCCCCS(=O)(=O)c1ccc(O)c(C(=O)Nc2ccc([N+](=O)[O-])cc2)c1` [(f), 5-n-octylsulfonyl-4'-nitrosalicylanilide], the MIC in the data set on S. pyogenes (setting [6]) is 5 µg/mL (≈ 11.5 µM); in the data set with S. mutans [1] (setting [7]), 0.5 µg/mL (≈ 1.15 µM); in the data set with S. aureus, 5 µg/mL (≈ 11.5 µM); in the data set on S. epidermidis (setting [8]), 5 µg/mL (≈ 11.5 µM); with A. viscosus [4] (setting [9]), 1 µg/mL (≈ 2.3 µM).

With `CCCCCCCCCCS(=O)(=O)c1ccc(O)c(C(=O)Nc2ccc(C(F)(F)F)cc2)c1` [(d), 5-n-decylsulfonyl-4'-trifluoromethyl-salicylanilide], the MIC in the data set with S. pyogenes (setting [6]) came out at 0.5 µg/mL (≈ 1.03 µM); in the data set with S. mutans [1] (setting [7]), 0.5 µg/mL (≈ 1.03 µM); in the data set on S. aureus, 0.5 µg/mL (≈ 1.03 µM); in the data set with S. epidermidis (setting [8]), 0.1 µg/mL (≈ 0.206 µM); with A. viscosus [4] (setting [9]), 0.1 µg/mL (≈ 0.206 µM). Also, the deaths result in the data set on white rats is on record as “a second animal died”. The LD50 – broadly, the dose expected to kill half of the subjects tested – in data set [5] was over 2500 mg/kg. For the same molecule, the “Total Growth ID50 (50% growth inhibition dosage)” value in the data set with S. mutans [2] was 1.9 × 10^-3; in the data set on A. viscosus [3], 0.9 × 10^-4. Besides, the “Maximum % Inhibition” value in the data set with S. mutans [2] (at 0.2%) came to 76%; in the data set with A. viscosus [3] (at 0.2%), 95%.

On to `CCCCCCS(=O)(=O)c1ccc(O)c(C(=O)Nc2ccc(Br)cc2)c1` [(h), 5-n-hexylsulfonyl-4'-bromosalicylanilide], for which the MIC in the data set with S. pyogenes (setting [6]) came out at 5 µg/mL (≈ 11.4 µM); in the data set with S. aureus it was 5 µg/mL (≈ 11.4 µM); in the data set with S. epidermidis (setting [8]), 10 µg/mL (≈ 22.7 µM); with A. viscosus [4] (setting [9]), 5 µg/mL (≈ 11.4 µM).

`CCCCCCCCCCS(=O)(=O)c1ccc(O)c(C(=O)Nc2ccc(Br)cc2)c1` [(g), 5-n-decylsulfony-4'-bromosalicylanilide]: the MIC came out at 0.5 µg/mL (≈ 1.01 µM) in the data set with S. pyogenes (setting [6]); 1 µg/mL (≈ 2.01 µM) with S. mutans [1] (setting [7]); 5 µg/mL (≈ 10.1 µM) with S. aureus; 0.5 µg/mL (≈ 1.01 µM) with S. epidermidis (setting [8]); 0.5 µg/mL (≈ 1.01 µM) in the data set on A. viscosus [4] (setting [9]).
